Laboratory results: patent US7166688B1, “Chelation compositions” (LidoChem, Inc., priority 2000, dated 2007)

Tests used:
[1] = Iron chelation, clear solution / precipitate test; type: physicochemical; details: for appearance of solution / precipitates: 500 ml water, 10 ml 1.8 M ferric nitrate, pH 10, 10 grams potassium phosphate
Description: A five percent chelated iron solution was prepared by blending 18 ml of water with 100 grams of a (10% Fe) ferric nitrate solution. Once in solution, 82 grams of the compound produced in Example 10 was added.
In 25 ml of water, 20 ml of a 1.8M ferric nitrate was added. Once in solution, 30 ml of the diethanolsuccinamide amino ethanol solution produced in Example 17 was added and the pH of the blend was adjusted to 9.2. Then 1 gram of potassium phosphate was added to the mixture.
Five drops of 1.8 M ferric nitrate were added to one liter of water and mechanically blended. Then 10 grams of potassium phosphate were added to the solution and allowed to form insoluble potassium salts.
In 400 ml of water, 20 ml of a 10% ferric nitrate solution were added, and 20 ml of the product from example 25 were added. With mechanical stirring, 40 grams of monopotassium phosphate was added the mix. The pH of the solution was then adjusted to 2 with HCl. The pH of the solution was then gradually raised with the addition of base to a pH of 10.
In 400 ml of water, 10 ml of 1.8 M ferric nitrate solution were added and 20 ml of the product from example 28 were added. With mechanical stirring, 20 grams of monopotassium phosphate was added to the mix. The pH of the solution was then adjusted to 2 with HCL. The pH of the solution was then gradually raised with the addition of Monoethanolamine to a pH of 10.
To a beaker containing one liter of water, 20 grams of potassium phosphate were added to form a clear solution.
Thirty grams of 1.8 M ferric nitrate were added to 100 ml of water. The pH of the solution was lowered to 4 with phosphorous acid, and then 5 grams of Potassium phosphate were then added to the blend. Later 30 ml of the solution produced in example 29 was added.
One hundred ml of the solution prepared in Example 41 was added to 500 ml of water and blended. 10 ml of 1.8-M ferric nitrate was then added to the mixture. […] The potassium salt of maleic acid was tested as a chelating agent.
In a separate flask 20 grams of maleic anhydride were blended in 500 ml of water. Potassium hydroxide was then added to the blend to raise the pH to 10. Later ten ml of 1.8M ferric nitrate was added to the mix and 10 grams of potassium phosphate was also blended in. […] The contents of the flask were then blended again while MEA was added to the mix.

[2] = tested on: Wheat; assay: Soil applied IDS chelated minerals with 10-34-0, tissue analysis, wheat; type: in vivo
Description: (§1) An experimental trial was completed testing the efficacy of the Iminodisuccinates (IDS) of this invention on five different crops. Below is the protocol and tissue analysis for both soil and foliar applied iminodisuccinate chelated mineral salts.
(§2) A). The control pots were watered without any further treatments.
(§3) B). An ammonium polyphosphate stock solution was prepared by adding 50 ml of the 10-34-0 to 4000 ml of water. Treated plants received 100 ml of the stock solution.
(§4) (C). The Zinc stock solution was prepared by blending 10 ml of IDS chelated 9% Zinc to a blend of 50 ml of 10-34-0 with 4000 ml of water. Treated plants received 100 ml of the zinc stock solution.
(§5) (D). The mixture of IDS chelated micronutrients was prepared by adding 4 ml of 9% Zinc, 1 ml of 5% Copper, 1 ml of 5% manganese, and 1 ml of 5% Iron. This mixture was then blended with 4000 ml of water and 50 ml of 10-34-0.
(§6) All plants were sprayed until wet. Harvested material was placed in an oven for one day and sent to the lab for tissue analysis. Harvesting occurred thirty days after planting and some plants had not grown enough to get complete lab results reported. The harvested corn plants were cut at the whirl to insure only new leaves would be tested. The soybeans were clipped above the cotyledon. The alfalfa and clover were removed from the soil and the roots were removed. The wheat was cut at the tillering node.

[3] = tested on: Clover; assay: Foliar applied IDS chelated minerals, tissue analysis, clover; type: in vivo
Description: as §1
(§7) A stock solution for foliar application was prepared by blending 6000 ml of water with T-DAT 09, (Harcross Chemical Company, USA) a surfactant, added to spray mix at 2 drops per liter. • 1). 5 ml of 9% zinc was added to 1 liter of stock solution. • 2). 5 ml of 5% copper was added to 1 liter of stock solution. • 3). 5 ml of 5% manganese was added to 1 liter of stock solution. • 4). 5 ml of 5% Iron was added to 1 liter of stock solution. • 5). 4 ml of 9% zinc, 1 ml of 5% copper, 1 ml of 5% manganese, and 1 ml of 5% iron was added to 1 liter of stock solution. • 6). Stock solution without further addition.
as §6

[4] = tested on: Clover; assay: Soil applied IDS chelated minerals with 10-34-0, tissue analysis, clover; type: in vivo
Description: as §1, §2, §3, §4, §5, §6

[5] = tested on: Soybean; assay: Foliar applied IDS chelated minerals, tissue analysis, soybeans; type: in vivo
Description: as §1, §7, §6

[6] = tested on: Wheat; assay: Foliar applied IDS chelated minerals, tissue analysis, wheat; type: in vivo
Description: as §1, §7, §6

[7] = tested on: Corn; assay: Foliar applied IDS chelated minerals, tissue analysis, corn; type: in vivo
Description: as §1, §7, §6

[8] = tested on: Corn; assay: Soil applied IDS chelated minerals with 10-34-0, tissue analysis, corn; type: in vivo
Description: as §1, §2, §3, §4, §5, §6

[9] = tested on: pepper plants; assay: IDS versus EDTA chelates applied to the soil of pepper plants, tissue analysis; type: in vivo
Description: Below is the protocol and tissue analysis for the soil-applied iminodisuccinate and EDTA chelated mineral salts. Treatments: Control—no fertilizer 15-30-15 (fertilizer) alone 15-30-15 plus Cu IDS […] 15-30-15 plus Mn IDS […] 15-30-15 plus Zn IDS […] The standard fertilizer contained no micronutrients. Fertilizer was Hyponex 15-30-15. Each treatment was replicated 3 times. Soil treatments were applied as 50 ml per of the dilute blend of this invention. The pepper plants were transplanted into 1-gallon containers and grown until a suitable size. Plants were treated with the soil-applied chelate. Tissue samples were taken 30 days after the soil treatment had been applied. […] One gallon of fertilizer was poured over three replications of each set in the trial.

## NCCO [MEA, monoethanolamine, reference compound]
[1]; MEA added to the potassium maleate / ferric nitrate / potassium phosphate mix at pH 10
  redissolution of the precipitate on adding MEA: The precipitate never went back into solution

## IRON
[2]; soil applied with 10-34-0, harvested 30 days after planting, control 79.3
  iron in plant tissue, TREATED: 90.9
[2]; soil applied, treated minus control 79.3
  iron in plant tissue, CHANGE: 11.6
[2]; soil applied, versus control 79.3
  iron in plant tissue, % change: 15%
[3]; harvested 30 days after planting, control 130
  iron in plant tissue, TREATED: 731 parts per million
[3]; treated minus control 130
  iron in plant tissue, CHANGE: 601 parts per million
[4]; soil applied with 10-34-0, harvested 30 days after planting, control 143
  iron in plant tissue, TREATED: 224
[4]; soil applied, treated minus control 143
  iron in plant tissue, CHANGE: 81
[4]; soil applied, versus control 143
  iron in plant tissue, % change: 57%
[5]; harvested 30 days after planting, control 111
  iron in plant tissue, TREATED: 557 parts per million
[5]; treated minus control 111
  iron in plant tissue, CHANGE: 446 parts per million
[5]; versus control 111
  iron in plant tissue, % change: 402%
[6]; harvested 30 days after planting, control 94.5
  iron in plant tissue, TREATED: 334 parts per million
[6]; treated minus control 94.5
  iron in plant tissue, CHANGE: 239.5 parts per million
[7]; harvested 30 days after planting, control 36.9
  iron in plant tissue, TREATED: 494 parts per million
[7]; treated minus control 36.9
  iron in plant tissue, CHANGE: 457.1 parts per million
[7]; versus control 36.9
  iron in plant tissue, % change: 1239%
[8]; soil applied with 10-34-0, harvested 30 days after planting, control 45.4
  iron in plant tissue, TREATED: 82.2
[8]; soil applied, treated minus control 45.4
  iron in plant tissue, CHANGE: 36.8
[8]; soil applied, versus control 45.4
  iron in plant tissue, %: 81%

## O=C([O-])CC(C(=O)[O-])N(CCO)C(CC(=O)[O-])C(=O)[O-].[K+].[K+].[K+].[K+] (stereo not drawn) [Example 41, N,N-disuccinic-amino-ethanol tetra potassium salt]
[1]
  appearance of solution / precipitates: orange-red clear solution without precipitates

## EDTA [reference compound]
[9]; soil applied with 15-30-15, tissue 30 days after treatment, control 8.0
  copper in tissue, TREATED: 12.9
[9]; soil applied, control 4.8
  TREATED (dry weight): 6.2
[9]; soil applied, dry weight, CONTROL DRY 4.8
  TREATED DRY: 6.1
[9]; soil applied, tissue level times dry weight, control adjusted 38.08
  copper in tissue, TREATED ADJUSTED: 80.03
[9]; soil applied, treated adjusted minus control adjusted 38.08
  copper in tissue, CHANGE IN (adjusted): 41.95
[9]; soil applied, treated dry minus control dry 4.8
  CHANGE IN WEIGHT: 1.36
[9]; soil applied, versus control adjusted 38.08
  copper in tissue, % CHANGE (adjusted): 110%
[9]; soil applied, versus control dry 4.8
  % CHANGE (dry weight): 29%

## O=C([O-])/C=C\C(=O)[O-].[K+].[K+] [potassium salt of maleic acid, reference compound]
[1]
  appearance of solution / precipitates: a rust colored solid precipitated

## COPPER
[2]; soil applied with 10-34-0, harvested 30 days after planting, control 6.79
  copper in plant tissue, TREATED: 12.1
[2]; soil applied, treated minus control 6.79
  copper in plant tissue, CHANGE: 5.31
[2]; soil applied, versus control 6.79
  copper in plant tissue, % change: 78%
[3]; harvested 30 days after planting, control 9.64
  copper in plant tissue, TREATED: 227 parts per million
[3]; treated minus control 9.64
  copper in plant tissue, CHANGE: 217.36 parts per million
[4]; soil applied with 10-34-0, harvested 30 days after planting, control 8.91
  copper in plant tissue, TREATED: 20.2
[4]; soil applied, treated minus control 8.91
  copper in plant tissue, CHANGE: 11.29
[4]; soil applied, versus control 8.91
  copper in plant tissue, % change: 127%
[5]; harvested 30 days after planting, control 4.74
  copper in plant tissue, TREATED: 937 parts per million
[5]; treated minus control 4.74
  copper in plant tissue, CHANGE: 932.26 parts per million
[6]; harvested 30 days after planting, control 10.8
  copper in plant tissue, TREATED: 157 parts per million
[6]; treated minus control 10.8
  copper in plant tissue, CHANGE: 146.2 parts per million
[7]; harvested 30 days after planting, control 5.2
  copper in plant tissue, TREATED: 300 parts per million
[7]; treated minus control 5.2
  copper in plant tissue, CHANGE: 294.8 parts per million
[7]; versus control 5.2
  copper in plant tissue, % change: 5669%
[8]; soil applied with 10-34-0, harvested 30 days after planting, control 5.43
  copper in plant tissue, TREATED: 11.7
[8]; soil applied, treated minus control 5.43
  copper in plant tissue, CHANGE: 6.27
[8]; soil applied, versus control 5.43
  copper in plant tissue, %: 115%

## [Mn+2]
[2]; soil applied with 10-34-0, harvested 30 days after planting, control 71.8
  manganese in plant tissue, TREATED: 76.2
[2]; soil applied, treated minus control 71.8
  manganese in plant tissue, CHANGE: 4.4
[2]; soil applied, versus control 71.8
  manganese in plant tissue, % change: 6%
[3]; harvested 30 days after planting, control 168
  manganese in plant tissue, TREATED: 510 parts per million
[3]; treated minus control 168
  manganese in plant tissue, CHANGE: 342 parts per million
[4]; soil applied with 10-34-0, harvested 30 days after planting, control 154
  manganese in plant tissue, TREATED: 98.4
[5]; harvested 30 days after planting, control 230
  manganese in plant tissue, TREATED: 544 parts per million
[5]; treated minus control 230
  manganese in plant tissue, CHANGE: 314 parts per million
[5]; versus control 230
  manganese in plant tissue, % change: 137%
[6]; harvested 30 days after planting, control 72.1
  manganese in plant tissue, TREATED: 379 parts per million
[6]; treated minus control 72.1
  manganese in plant tissue, CHANGE: 306.9 parts per million
[7]; harvested 30 days after planting, control 99.1
  manganese in plant tissue, TREATED: 310 parts per million
[7]; treated minus control 99.1
  manganese in plant tissue, CHANGE: 210.9 parts per million
[7]; versus control 99.1
  manganese in plant tissue, % change: 213%
[8]; soil applied with 10-34-0, harvested 30 days after planting, control 128
  manganese in plant tissue, TREATED: 80.1
